This is an account of results in ChEMBL document CHEMBL1201862, “PubChem BioAssay data set” (2004).

Assay in all cases: inhibition of tumour cell growth, NCI panel, 48 h
Test [1] deals with A549.
Test [2] has as its system ACHN.
Test [3] deals with BT-549.
The subject of test [4] is CCRF-CEM.
The subject of test [5] is DU-145.
Test [6] concerns EKVX.
Test [7] has as its system HOP-92.
Test [8] has as its system HT-29.
Test [9] concerns K562.
Test [10] concerns M14.
The test system of test [11] is MCF7.
Test [12] concerns MDA-MB-231.
Test [13] deals with MOLT-4.
The test system of test [14] is OVCAR-3.
In test [15] the test system is SF-268.
Test [16] deals with SK-MEL-5.
Test [17] concerns SNB-19.
Test [18] has as its system T47D.
In test [19] the test system is SR.

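Each compound was tested at five concentrations against cells in 96-well plates for 48 hours. GI50: concentration for 50% inhibition of growth.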 Calls of active or inactive are those of the source. No stated cut-off is given here; in the data, active = GI50 up to about 1.1 µM and inactive = higher.

With `Nc1ccc2c(c1)N(C(=O)c1cc3cc(NC(=O)c4cc5ccccc5o4)ccc3[nH]1)CC2CCl` (centres undefined), the GI50 is 0.0299 µM (active) in test [1]; 0.0199 µM (active) in test [2]; 0.164 µM (active) in test [3]; 0.0405 µM (active) in test [4]; 0.0254 µM (active) in test [5]; 0.262 µM (active) in [6]. Besides, the GI50 was 0.168 µM (active) in [7]; 0.129 µM (active) in [8]; 0.0662 µM (active) in [9]; 0.12 µM (active) in test [10]; 0.0221 µM (active) in test [11]; 0.239 µM (active) in [12]. In addition, the GI50 in test [13] is 0.045 µM (active); in [14], 0.0743 µM (active); in test [15], 0.0498 µM (active); in test [16], 0.0397 µM (active); in [17], 0.277 µM (active); in [18], 0.114 µM (active).

As for `N#Cc1[nH]c(=O)n(-c2cccc3ccccc23)c1N`, the GI50 is > 10 µM (inactive) in [1]; > 10 µM (inactive) in test [2]; 4.61 µM (inactive) in test [3]; > 10 µM (inactive) in [4]; > 10 µM (inactive) in test [5]; > 10 µM (inactive) in test [6]. The GI50 in test [8], in test [9], in [10], in test [11], in test [12] and in test [13] was > 10 µM (inactive) throughout. Besides, the GI50 in test [14], in test [15], in test [16], in test [17], in test [19] and in test [18] was > 10 µM (inactive) in each case.

For `CC1(C)CC23CC(C)(C)c4cccc(c42)OCc2ccc4ccc5ccc(nc5c4n2)COc2cccc1c23`, the GI50 in test [1], in [2], in [3], in test [5], in [6] and in [7] was > 50 µM (inactive) throughout. The GI50 in [8], in [9], in [10], in [11], in test [12] and in test [13] was > 50 µM (inactive) each time. Besides, the GI50 in test [14] is > 50 µM (inactive); in test [15], > 50 µM (inactive); in test [16], > 50 µM (inactive); in test [17], > 5 µM (inactive); in test [19] it was > 50 µM (inactive); in test [18] it was > 50 µM (inactive).

For `COc1cc(C(c2ccc3c(c2)OCO3)N2C(=O)CCC2C(=O)O)cc(OC)c1OC` (centres undefined), the GI50 in test [1], in [2], in test [3], in test [4], in test [5] and in [6] was > 100 µM (inactive) throughout. For the same compound, the GI50 in [7], in test [8], in test [9], in [10], in [11] and in test [12] was > 100 µM (inactive) in each case. Besides, the GI50 in test [13], in test [14], in test [15], in test [16], in test [17] and in [18] was > 100 µM (inactive) each time.

Take `Cn1c2ccccc2n2c3ncccc3c(=S)c(C#N)c12`: the GI50 in [1], in [2], in test [3], in [4], in [5] and in test [6] was > 100 µM (inactive) throughout. For the same compound, the GI50 in test [8], in [9], in test [10], in [11], in test [12] and in test [13] was > 100 µM (inactive) each time. In addition, the GI50 is > 100 µM (inactive) in [14]; > 100 µM (inactive) in test [15]; > 100 µM (inactive) in test [16]; > 100 µM (inactive) in test [17]; 71.4 µM (inactive) in test [19]; > 100 µM (inactive) in [18].

Turning to `COC(=O)Oc1nn(C(=O)OC)c(=O)c2ccccc12`, the GI50 in [1], in test [2], in [3], in test [4], in test [5] and in test [6] was > 100 µM (inactive) throughout. For the same compound, the GI50 in test [9] was > 100 µM (inactive); in test [10], > 100 µM (inactive); in test [11], > 100 µM (inactive); in test [12] it was 95.3 µM (inactive); in test [13], > 100 µM (inactive); in [14] it was > 100 µM (inactive). The GI50 is > 100 µM (inactive) in test [15]; > 100 µM (inactive) in [16]; > 100 µM (inactive) in test [17]; > 100 µM (inactive) in test [19]; 74.5 µM (inactive) in [18].

`COC(=O)C1(NC(=O)C(CC(=O)OCc2ccccc2)NC(=O)OCc2ccccc2)CCCCCC1` (centres undefined): the GI50 in [1] is 32.8 µM (inactive); in test [2], 34 µM (inactive); in test [3], 17.4 µM (inactive); in [5], 66.5 µM (inactive); in test [6], 47.6 µM (inactive); in test [7], 36.6 µM (inactive). Further, the GI50 was 22 µM (inactive) in test [8]; 23.2 µM (inactive) in [9]; > 100 µM (inactive) in test [10]; 33 µM (inactive) in test [11]; 32.4 µM (inactive) in [12]; 21.4 µM (inactive) in test [13]. Besides, the GI50 in test [14] was 26.1 µM (inactive); in test [15], 42 µM (inactive); in test [16] it was 15.4 µM (inactive); in [17], 51.8 µM (inactive); in test [19] it was 18.4 µM (inactive); in [18], 30.8 µM (inactive).

On to `O=C(Cc1ccccc1)NNc1nc(NNC(=O)c2ccncc2)nc(Nc2ccc(Cl)cc2)n1`, for which the GI50 in test [1], in [3], in test [4], in test [5], in test [6] and in test [7] was > 10 µM (inactive) in each case. The GI50 in [9], in test [10], in test [11], in test [12], in test [13] and in [15] was > 10 µM (inactive) throughout. The GI50 in test [16], in test [19] and in test [18] was > 10 µM (inactive) throughout.

In the case of `CC(=O)OC1CCC2(C)C(=CC(C3C=C4CC(OC(C)=O)CCC4(C)C4=C3C3CC5OC6(CCC(C)CO6)C(C)C5C3(C)CC4)C3=C2CCC2(C)C3CC3OC4(CCC(C)CO4)C(C)C32)C1` (centres undefined), the GI50 in [1] is 13.7 µM (inactive); in test [2] it was 15.8 µM (inactive); in [3] it was 15.6 µM (inactive); in test [5], 14.2 µM (inactive); in test [6], 17.9 µM (inactive); in [7] it was 14.1 µM (inactive). Further, the GI50 in test [8] is 14 µM (inactive); in test [9], 4.43 µM (inactive); in test [10], 14 µM (inactive); in test [11] it was 10.3 µM (inactive); in test [12] it was 16.3 µM (inactive); in test [13] it was 2.07 µM (inactive). Also, the GI50 in [14] was 15.1 µM (inactive); in [15], 11.4 µM (inactive); in [16] it was 13 µM (inactive); in [17] it was 16.7 µM (inactive); in test [19] it was 11.9 µM (inactive); in test [18], 15.5 µM (inactive).

Take `N/C(=N\c1ccc(Cl)cc1)NS(=O)(=O)c1cccc2nsnc12`: the GI50 is 52.1 µM (inactive) in test [1]; 30.3 µM (inactive) in test [2]; 25.2 µM (inactive) in test [3]; 82.2 µM (inactive) in test [5]; 19.7 µM (inactive) in test [6]; 16.1 µM (inactive) in [7]. The GI50 in test [8] was 55.6 µM (inactive); in test [9], 36.6 µM (inactive); in [10] it was 27.9 µM (inactive); in [11], 36.2 µM (inactive); in test [12] it was 17.9 µM (inactive); in test [13], 26.9 µM (inactive). Further, the GI50 in test [14] is 44.3 µM (inactive); in [15] it was 26.8 µM (inactive); in test [16] it was 16.1 µM (inactive); in test [17], 72.8 µM (inactive); in test [19], 33 µM (inactive); in test [18], 39.4 µM (inactive).

For `CC(=O)c1c2n(n(-c3ccccc3)c1=O)C(=O)c1nccnc1-2`, the GI50 in test [1], in test [2], in [3], in [5], in [6] and in test [7] was > 100 µM (inactive) each time. The GI50 in [8], in [9], in test [10], in [11], in test [12] and in test [13] was > 100 µM (inactive) each time. The GI50 in [14], in test [15], in test [16], in [17], in test [19] and in [18] was > 100 µM (inactive) throughout.
